Source: PubChem BioAssay AID328 (DTP/NCI, 2004)
Values joined by “and” are separate entries in the source; they are usually repeats but may differ in a detail not shown here. Equal values may be shown once. Toxic doses and inconclusive results are not listed.

System: BDF1 mice, P388 leukemia ip, median survival T/C
Assay: NCI In Vivo Anticancer Drug Screen. Data for tumor model P388 Leukemia (intraperitoneal) in B6D2F1 (BDF1) mice
Details: endpoint: median survival time, higher = longer survival
Method in brief: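 Transplantable tumour in mice; compound vs vehicle dosing; survival scored; ratio of treated to control reported.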

[1] = dose: 50.0 mg/kg/injection, schedule: Q01DX005 (ip), vehicle: saline with Tween-80
[2] = dose: 100.0 mg/kg/injection, schedule: Q01DX005 (ip), vehicle: saline with Tween-80
[3] = dose: 200.0 mg/kg/injection, schedule: Q01DX005 (ip), vehicle: saline with Tween-80
[4] = dose: 100.0 mg/kg/injection, schedule: Q01DX009 (ip), vehicle: Klucel (hydroxypropylcellulose) (HPC)
[5] = dose: 200.0 mg/kg/injection, schedule: Q01DX009 (ip), vehicle: Klucel (hydroxypropylcellulose) (HPC)
[6] = dose: 100.0 mg/kg/injection, schedule: Q04DX003 (ip), vehicle: saline
[7] = dose: 100.0 mg/kg/injection, schedule: Q01DX009 (ip), vehicle: saline with Tween-80
[8] = dose: 200.0 mg/kg/injection, schedule: Q01DX009 (ip), vehicle: saline with Tween-80
[9] = dose: 100.0 mg/kg/injection, schedule: Q04DX003 (ip), vehicle: saline with Tween-80
[10] = dose: 200.0 mg/kg/injection, schedule: Q04DX003 (ip), vehicle: saline with Tween-80
[11] = dose: 50.0 mg/kg/injection, schedule: Q01DX009 (ip), vehicle: saline with Tween-80
[12] = dose: 25.0 mg/kg/injection, schedule: Q01DX009 (ip), vehicle: saline with Tween-80
[13] = dose: 100.0 mg/kg/injection, schedule: Q01DX009 (ip), vehicle: saline
[14] = dose: 200.0 mg/kg/injection, schedule: Q01DX009 (ip), vehicle: saline

SMILES: CCCCOCCN1CCN(CCCN2c3ccccc3Sc3ccc(C(F)(F)F)cc32)CC1
- T/C (dose: 12.5 mg/kg/injection, schedule: Q04DX003 (ip), vehicle: saline): 111 % of control
- T/C (dose: 25.0 mg/kg/injection, schedule: Q04DX003 (ip), vehicle: saline): 112 % of control
- T/C (dose: 50.0 mg/kg/injection, schedule: Q04DX003 (ip), vehicle: saline): 153 % of control

SMILES: CCOC(=O)/C=C(\C)Sc1cc(O)c2ccccc2c1O
- T/C (dose: 3.13 mg/kg/injection, schedule: Q01DX009 (ip), vehicle: saline with Tween-80): 102 % of control
- T/C (dose: 6.25 mg/kg/injection, schedule: Q01DX009 (ip), vehicle: saline with Tween-80): 103 % of control

SMILES: COc1ccc2c(C(=O)CCC(=O)O)cccc2c1
- T/C (dose: 100.0 mg/kg/injection, schedule: Q01DX001 (ip), vehicle: saline): 100 % of control
- T/C (dose: 200.0 mg/kg/injection, schedule: Q01DX001 (ip), vehicle: saline): 100 % of control
- T/C (dose: 400.0 mg/kg/injection, schedule: Q01DX001 (ip), vehicle: saline): 100 % of control

SMILES: O=C(CSc1nc2ccccc2s1)c1sc2sc3ccccc3[n+]2c1[O-]
- T/C [1]: 97 % of control
- T/C [2]: 97 % of control
- T/C [3]: 87 % of control

SMILES: CCCCCSc1nc(N)nc2nc[nH]c12
- T/C [4]: 118 % of control
- T/C (dose: 100.0 mg/kg/injection, schedule: Q04DX003 (ip), vehicle: other): 100 % of control
- T/C [5]: 95 % of control
- T/C (dose: 200.0 mg/kg/injection, schedule: Q04DX003 (ip), vehicle: other): 100 % of control
- T/C (dose: 400.0 mg/kg/injection, schedule: Q04DX003 (ip), vehicle: other): 94 % of control

SMILES: Cn1c(N)c(N=O)c(=O)n(C)c1=O
- T/C (dose: 3.12 mg/kg/injection, schedule: Q01DX009 (ip), vehicle: saline): 109 % of control
- T/C (dose: 6.25 mg/kg/injection, schedule: Q01DX009 (ip), vehicle: saline): 100 % of control
- T/C (dose: 12.5 mg/kg/injection, schedule: Q01DX009 (ip), vehicle: saline): 100 % of control
- T/C (dose: 25.0 mg/kg/injection, schedule: Q01DX009 (ip), vehicle: Klucel (hydroxypropylcellulose) (HPC)): 95 % of control
- T/C (dose: 50.0 mg/kg/injection, schedule: Q01DX009 (ip), vehicle: Klucel (hydroxypropylcellulose) (HPC)): 90 % of control
- T/C (dose: 100.0 mg/kg/injection, schedule: Q04DX003 (ip), vehicle: alcohol): 109 % of control
- T/C (dose: 125.0 mg/kg/injection, schedule: Q01DX010 (ip), vehicle: other): 109 % of control
- T/C (dose: 200.0 mg/kg/injection, schedule: Q04DX003 (ip), vehicle: alcohol): 100 % of control
- T/C (dose: 250.0 mg/kg/injection, schedule: Q01DX010 (ip), vehicle: other): 86 % of control
- T/C (dose: 400.0 mg/kg/injection, schedule: Q04DX003 (ip), vehicle: alcohol): 100 % of control

SMILES: CN(N=O)C(N)=O
- T/C (dose: 25.0 mg/kg/injection, schedule: Q04DX003 (ip), vehicle: saline with Tween-80): 150 % of control
- T/C (dose: 37.5 mg/kg/injection, schedule: Q04DX003 (ip), vehicle: saline with Tween-80): 154 % of control

SMILES: N#CCCCCNC(=O)C1CCC(=O)N1 (stereo not given)
- T/C [6]: 111 % of control
- T/C (dose: 400.0 mg/kg/injection, schedule: Q04DX003 (ip), vehicle: saline): 111 % of control

SMILES: S=c1nc[nH]c2c1ncn2C1CCCC1
- T/C [7]: 104 % of control
- T/C [8]: 95 % of control

SMILES: CC12CCC(C=C1N1CCCCC1)C(C)(C)O2 (stereo not given)
- T/C [1]: 101 % of control
- T/C [2]: 101 % of control
- T/C [3]: 106 % of control

SMILES: CCCCCC(C)C(=O)CCCC (stereo not given) (tested in a mixture with another compound)
- T/C (dose: 50.0 mg/kg/injection, schedule: Q04DX003 (ip), vehicle: saline with Tween-80): 104 % of control
- T/C [9]: 104 % of control
- T/C [10]: 100 % of control

SMILES: CC(C)c1nsc(N)c1C(N)=O
- T/C [11]: 92 % of control
- T/C [7]: 96 % of control

SMILES: CCOP(=O)(N1CC1(C)C)N1CC1(C)C (stereo not given)
- T/C (dose: 50.0 mg/kg/injection, schedule: Q04DX003 (ip), vehicle: alcohol): 110 % of control
- T/C (dose: 66.0 mg/kg/injection, schedule: Q04DX003 (ip), vehicle: saline): 280 % of control and 172 % of control
- T/C [6]: 272 % of control and 300 % of control
- T/C (dose: 150.0 mg/kg/injection, schedule: Q04DX003 (ip), vehicle: saline): 272 % of control and 95 % of control

SMILES: Cc1nc2c(sc(=N)n2-c2ccccc2)c(=O)[nH]1
- T/C [11]: 114 % of control

SMILES: OC1(c2ccncc2)C=CCC1 (stereo not given)
- T/C (dose: 25.0 mg/kg/injection, schedule: Q04DX002 (ip), vehicle: saline with Tween-80): 100 % of control
- T/C (dose: 50.0 mg/kg/injection, schedule: Q04DX002 (ip), vehicle: saline with Tween-80): 106 % of control
- T/C (dose: 100.0 mg/kg/injection, schedule: Q04DX002 (ip), vehicle: saline with Tween-80): 97 % of control

SMILES: Cc1c(Cl)cccc1NC(=O)Nc1ccccc1
- T/C (dose: 100.0 mg/kg/injection, schedule: Q04DX003 (ip), vehicle: DMSO): 103 % of control
- T/C (dose: 200.0 mg/kg/injection, schedule: Q04DX003 (ip), vehicle: DMSO): 100 % of control
- T/C (dose: 400.0 mg/kg/injection, schedule: Q04DX003 (ip), vehicle: DMSO): 107 % of control

SMILES: O=C(C(=O)c1ccc(Br)cc1)c1ccc(Br)cc1
- T/C [7]: 96 % of control
- T/C [8]: 98 % of control
- T/C (dose: 400.0 mg/kg/injection, schedule: Q01DX009 (ip), vehicle: saline with Tween-80): 98 % of control

SMILES: CCOC(=O)C(C)NC(=O)N(C)C12CC3CC(CC(C3)C1)C2 (stereo not given)
- T/C [4]: 113 % of control
- T/C [5]: 117 % of control
- T/C (dose: 400.0 mg/kg/injection, schedule: Q01DX009 (ip), vehicle: Klucel (hydroxypropylcellulose) (HPC)): 119 % of control

SMILES: CCCCCCCCCCCCCCCCCSCCCCCSCCCCCCCCCCCCCCCCC
- T/C (dose: 100.0 mg/kg/injection, schedule: Q01DX001 (ip), vehicle: saline with Tween-80): 90 % of control
- T/C (dose: 400.0 mg/kg/injection, schedule: Q01DX001 (ip), vehicle: saline with Tween-80): 86 % of control

SMILES: Oc1ccc(F)c2cccnc12
- T/C (dose: 12.5 mg/kg/injection, schedule: Q01DX010 (ip), vehicle: carboxymethylcellulose (CMC)): 100 % of control
- T/C (dose: 25.0 mg/kg/injection, schedule: Q01DX010 (ip), vehicle: carboxymethylcellulose (CMC)): 105 % of control
- T/C (dose: 50.0 mg/kg/injection, schedule: Q01DX010 (ip), vehicle: carboxymethylcellulose (CMC)): 100 % of control

SMILES: CCOC(CNC(=O)NC1CCCCC1)OCC
- T/C [9]: 90 % of control
- T/C [10]: 90 % of control
- T/C (dose: 400.0 mg/kg/injection, schedule: Q04DX003 (ip), vehicle: saline with Tween-80): 90 % of control

SMILES: CC1=NNC(=O)/C1=C\c1ccccc1
- T/C [12]: 103 % of control
- T/C [11]: 99 % of control
- T/C [7]: 108 % of control

SMILES: CC(O)C(C)(O)C(=O)O (stereo not given)
- T/C (dose: 50.0 mg/kg/injection, schedule: Q01DX009 (ip), vehicle: saline): 103 % of control
- T/C [13]: 117 % of control
- T/C [6]: 101 % of control
- T/C [14]: 91 % of control
- T/C (dose: 200.0 mg/kg/injection, schedule: Q04DX003 (ip), vehicle: saline): 95 % of control
- T/C (dose: 300.0 mg/kg/injection, schedule: Q01DX009 (ip), vehicle: saline): 99 % of control

SMILES: Nc1ccc(CCc2ccc(Cl)cc2S(=O)(=O)F)c(Cl)c1
- T/C [13]: 95 % of control
- T/C [14]: 91 % of control

SMILES: N/C(=N\[N+](=O)[O-])N(CCCCl)N=O
- T/C [12]: 103 % of control
- T/C (dose: 27.0 mg/kg/injection, schedule: Q01DX009 (ip), vehicle: Klucel (hydroxypropylcellulose) (HPC)): 152 % of control
- T/C (dose: 33.0 mg/kg/injection, schedule: Q01DX009 (ip), vehicle: saline with Tween-80): 108 % of control
- T/C (dose: 37.5 mg/kg/injection, schedule: Q04DX003 (ip), vehicle: saline sonified): 100 % of control
- T/C (dose: 40.0 mg/kg/injection, schedule: Q01DX009 (ip), vehicle: Klucel (hydroxypropylcellulose) (HPC)): 157 % of control
- T/C [11]: 107 % of control
- T/C (dose: 60.0 mg/kg/injection, schedule: Q01DX009 (ip), vehicle: Klucel (hydroxypropylcellulose) (HPC)): 166 % of control
- T/C (dose: 75.0 mg/kg/injection, schedule: Q04DX003 (ip), vehicle: saline sonified): 100 % of control
- T/C [7]: 120 % of control
- T/C [9]: 109 % of control
- T/C (dose: 112.5 mg/kg/injection, schedule: Q01DX009 (ip), vehicle: saline with Tween-80): 154 % of control
- T/C (dose: 150.0 mg/kg/injection, schedule: Q04DX003 (ip), vehicle: saline sonified): 100 % of control
- T/C (dose: 176.0 mg/kg/injection, schedule: Q04DX003 (ip), vehicle: saline sonified): 100 % of control
- T/C [10]: 122 % of control
